Literature values, collected in patent US6943197B2, “Topical administration of pharmacologically active bases in the treatment of inflammatory dermatoses” (priority 2002, dated 2005).
Like-named read-outs stand apart in the source and are kept apart here.

Experiments:
[1] = for pH of Aqueous Solution (alkalinity in words): no concentration, result in words
[2] = forms Ca(OH)2

## N.N.O=P(O)(O)O [Ammonium phosphate, dibasic]
[1]; concentration not given
  pH of Aqueous Solution: ˜8

## [O]=[Ca] [Calcium oxide]
[2]
  Solubility in water: Soluble in water, Form

## [O]=[Mg] [Magnesium oxide]
[1]; saturated solution in water
  pH of Aqueous Solution: 10.3

## O=C([O-])CC(O)(CC(=O)[O-])C(=O)[O-].[K+].[K+].[K+] [Potassium citrate]
[1]; concentration not given
  pH of Aqueous Solution: ˜8.5

## O=P([O-])([O-])O.[K+].[K+] [Potassium phosphate, dibasic]
[1]
  pH of Aqueous Solution (alkalinity in words): Aqueous solution is slightly

## CC(=O)[O-].[Na+] [Sodium acetate, anhydrous]
[1]; 0.1 N
  pH of Aqueous Solution: ˜8.9 (0.1 N)

## CC(=O)[O-].O.O.O.[Na+] [Sodium acetate, tribydrate]
[1]; 0.1 N
  pH of Aqueous Solution: 8.9 (0.1 N)

## O=C([O-])[O-].[Na+].[Na+] [Sodium carbonate anhydrous]
[1]; concentration not given
  pH of Aqueous Solution: ˜11.6

## O=B[O-].[Na+] [Sodium metaborate]
[1]
  pH of Aqueous Solution (alkalinity in words): Strongly alkaline

## O.O.O=P([O-])([O-])O.[Na+].[Na+] [Sodium phosphate, dibasic, dihydrate]
[1]; concentration not given
  pH of Aqueous Solution: ˜9.5

## O.O.O.O.O.O.O.O.O.O.O.O.O=P([O-])([O-])O.[Na+].[Na+] [Sodium phosphate, dibasic, dodecahydrate]
[1]; concentration not given
  pH of Aqueous Solution: ˜9.5

## O.O.O.O.O.O.O.O=P([O-])([O-])O.[Na+].[Na+] [Sodium phosphate, dibasic, heptahydrate]
[1]; concentration not given
  pH of Aqueous Solution: ˜9.5

## O=P([O-])([O-])O.[Na+].[Na+] [Sodium phosphate, dibasic]
[1]; concentration not given
  pH of Aqueous Solution: ˜9.5

## O.O.O.O.O.O.O.O.O.O.O.O.O=P([O-])([O-])[O-].[Na+].[Na+].[Na+] [Sodium phosphate, tribasic dodecahydrate]
[1]; 1.0% (1%)
  pH of Aqueous Solution: 11.9 (1.0%)
